From publication PMC10042774, “Theoretical and molecular mechanistic investigations of novel (3-(furan-2-yl)pyrazol-4-yl) chalcones against lung carcinoma cell line (A549)” (Naunyn-Schmiedeberg's Archives of Pharmacology, 2022)
In brackets after ≈: the same amount, converted by molar mass. Several values for one entry are separate records, joined by “and”; a condition that tells them apart may be missing. Equal entries are not always repeated.

Tests used:
[1] = system: lung carcinoma (A549) cell line; experiment: MTT assay against lung carcinoma (A549) cell line; type: cell-based, human; conditions: for IC50 values, Lung carcinoma (A549): 48 h; for IC50: Homo sapiens, A549, 48 h
Excerpt: (§1) In vitro inhibition activity of the newly synthesized series was investigated on cell viability according to the literature review described by Mohamed et al. (Mohamed et al. [2021b]). In a brief explanation of MTT assay employed herein. In vitro, toxicological MTT Kit has been used to perform an (3-[4,5-dimethylthiazole-2-yl]-2,5-diphenyltetrazolium bromide) to measure the cytotoxicity effect of a novel (3-(Furan-2-yl)pyrazol-4-yl) chalcones against A549 cell line. Lung carcinoma cell line A549 was seeded in microplate where the prepared chalcones solution were added to triplicates well. Incubation of plates was done at 37 °C for 48 h. The fresh […]. Lung cells treated with different range concentration of our series [[…]] were incubated, also untreated cells were used as a reference negative control. One percent antibiotic mixture was used, and after incubation. The positive control utilized here was 5-FU ([…]).

[2] = system: normal lung (Wi38) cell line; experiment: MTT assay against normal lung (Wi38) cell line; type: cell-based; conditions: Homo sapiens, WI-38, 48 h
Excerpt: [Worded in the source for another cell line; this cell line is reported under the same test.] as §1

BAX = experiment: Real-time PCR of BAX expression in A549 cells; type: cell-based, human; conditions: IC50 conc., 48 h, qPCR, untreated control = 1
Procedure: (§2) Total RNAfrom the compound 7b-, compound 7c-treated A549 cells, and untreated cells were extracted using the Qiagen RNAextraction Kit, Catalog # (74,104). 1 µg of RNAwas reverse transcribed into complementary DNA(cDNA) using High-Capacity cDNA Reverse Transcription Kit (Thermo Fisher scientific, ON, Canada). qPCR was performed using Bio RadSYBR Green qPCR master mix (Bio Rad, California, USA) in a Step One Plus Real-Time PCRSystem (Bio Rad, California, USA). The total reaction volume was 25 µL, 12.5 µL of SYBRgreen master mix, 1 µL of each primer (Bax, Bcl2, P53, CDK4) with 10 pmol/µL (Qiagen, CA, Germany), 2.5 µL of cDNA, and […] of RNAse free water. The thermal cycle of PCR started with an initial denaturation at 95 °C for 10 min, followed by 45 cycles at 94 °C for15 s, 65 °C for 30 s, and 56 °C for 30 s. The relative gene expression was determined using the method of 2^−ΔΔCtafter normalization to the expression of β-actin (Qiagen, CA, Germany) (10 pmol/µL). […]

Bcl2 = experiment: Real-time PCR of Bcl2 expression in A549 cells; type: cell-based, human; conditions: IC50 conc., 48 h, qPCR, untreated control = 1
Procedure: as §2

P53 = experiment: Real-time PCR of P53 expression in A549 cells; type: cell-based, human; conditions: IC50 conc., 48 h, qPCR, untreated control = 1
Procedure: as §2

CDK4 = experiment: Real-time PCR of CDK4 expression in A549 cells; type: cell-based, human; conditions: IC50 conc., 48 h, qPCR, untreated control = 1
Procedure: as §2

human caspase-3 = experiment: ELISA of caspase-3 in A549 cell lysates; type: cell-based; conditions: A549 cells, IC50 conc., 48 h, untreated control 53.69
Procedure: (§3) Elisa assay was performed to detect the concentration of human caspase-3, caspase-8, and caspase-9 in A549 cell culture lysates. The instructions were followed up according to the manuscript instructions described in the following kits: DRG® human Caspase-8 ELISA Kit, Catalogue # (EIA-4863), DRG® human Caspase-9 ELISA Kit, Catalogue # (EIA-4860), and Invitrogen human Caspase-3 Elisa Kit, Catalogue # KHO1091, respectively. All reagents, samples, and standards were prepared as described in the above ELISA kits. Briefly, the procedure was described as followed; the microwell strips were washed twice with wash buffer. A total of 100 μl of standard or samples were added to each well and incubated for 2 h at room temperature (18 to 25 °C). The microwell strips were emptied and washed three times with wash buffer. A total of 100 μl of prepared antibodyanti-rabbit-IgG-HRP) were added to each well for 1 h at room temperature. The step of washing was repeated three times and then, 100 μl of prepared TMB (tetramethyl-benzidine) substrate solution was pipetted to all wells and incubated for 10 min at room temperature. […] The absorbance of each microwell was read immediately on a spectrophotometer at a wavelength of 450 nm. The concentrations of the unknown samples and controls were determined from the standard curve which was plotted using curve fitting software.

human caspase-8 = experiment: ELISA of caspase-8 in A549 cell lysates; type: cell-based; conditions: A549 cells, IC50 conc., 48 h, untreated control 0.375
Procedure: as §3

human caspase-9 = experiment: ELISA of caspase-9 in A549 cell lysates; type: cell-based; conditions: A549 cells, IC50 conc., 48 h, untreated control 1.49
Procedure: as §3

A549 cells [3] = experiment: Flow-cytometric analysis of cell cycle (PI); type: cell-based, human; conditions: IC50 conc., 48 h
Procedure: (§4) 10^6 of A549 cells were cultured in 60-mm Petri dishes for 24 h and then treated with compound 7batIC50concentrationfor 48 h. The untreated A549 cells were used as a negative control. After 48 h of incubation, A549 cells were centrifuged at1000 rpm for 5 min at 4 °C. The cells pellet were washed in phosphate-buffered saline (PBS) and then centrifuged at 1000 rpm for another 5 min. After discarding the supeRNAtant, the cells were collected in a single cell suspension and fixed in 70% ethanol on ice overnight. After the fixation step, cells were washed with 1 ml 1 × PBS. Finally, the cells pellet was incubated with a 200 µl 1 × propidium iodide (PI) mixture at room temperature in the dark for 30 min. Then, cells were subjected to an Epics XL-MCL flow cytometer (Beckman Coulter, Miami, FL) for DNA content analysis. Cells distribution at different phases was analysed by Multicycle software (Phoenix Flow Systems, San Diego, CA). Annexin V-FITC kit catalogue number (#K101-25) was used to detect the percentage of the apoptotic cells. About 10^6 of A549 cells were collected by centrifugation. Then, cells were washed in 500 µl of 1 × PBS. The cells were collected by centrifugation and then resuspended in the annexin V incubation reagent. The annexin V incubation reagent comprising of 10 μL binding buffer (10X) + 10 μL propidium iodide + 1 μL annexin V-FITC + 79 μL deionized water. The cells in 100 μL annexin V incubation reagent was incubated in dark at room temperature for 15 min (Ali et al. [2017]). Finally, the percentage of apoptotic cells was analyzed by flow cytometry using FITC signal detector (usually FL-1) and PI staining by the phycoerythrin emission signal detector (usually FL-2).

A549 cells [4] = experiment: Flow-cytometric analysis of apoptosis (Annexin V-FITC/PI); type: cell-based, human; conditions: IC50 conc., 48 h
Procedure: as §4

| Compound | IC50 values, Lung carcinoma (A549) [1] [µg/mL] | IC50 [1] [µg/mL] | IC50 [2] [µg/mL] | melting point [°C] | other results |
| --- | --- | --- | --- | --- | --- |
| O=c1[nH]cc(F)c(=O)[nH]1 [5-FU, reference compound] | 147.29 (≈ 1130 µM) |  |  |  |  |
| Cc1c(C(=O)/C=C/c2ccco2)c(-c2ccco2)nn1-c1ccc([N+](=O)[O-])cc1 [7a, (E)-3-(Furan-2-yl)-1-(3-(furan-2-yl)-5-methyl-1-(4-nitrophenyl)-1H-pyrazol-4-yl)prop-2-en-1-one] |  | 42.7 (≈ 110 µM) | 68 (≈ 175 µM) | 138 to 140 |  |
| Cc1c(C(=O)/C=C/c2cccs2)c(-c2ccco2)nn1-c1ccc([N+](=O)[O-])cc1 [7b, (E)-1-(3-(Furan-2-yl)-5-methyl-1-(4-nitrophenyl)-1H-pyrazol-4-yl)-3-(thiophen-2-yl)prop-2-en-1-one] | 20.05 (≈ 49.5 µM) | 20 (≈ 49.3 µM) | 108 (≈ 267 µM) | 142 to 144 | Gene expression (fold change/ β-actin), BAX (BAX): 7.93 fold change; Gene expression (fold change/ β-actin), Bcl2 (Bcl2): 0.44 fold change; Gene expression (fold change/ β-actin), P53 (P53): 4.69 fold change; Gene expression (fold change/ β-actin), CDK4 (CDK4): 0.39 fold change; Enzyme activity ± SD, Caspase 3 (human caspase-3): 495.4 pg/mL and 495.4 ± 6.52 pg/mL; Enzyme activity ± SD, Caspase 8 (human caspase-8): 1.575 ± 0.05 pg/mL; Enzyme activity ± SD, Caspase 9 (human caspase-9): 15.76 ± 0.06 pg/mL; Cell cycle arrest (phase) (A549 cells [3]): cell cycle arrest at G0/G1 and S phases; G2/M % (DNA content) (A549 cells [3]; untreated control 15.63): 4.21%; S % (DNA content) (A549 cells [3]; untreated control 37.15): 43.42%; G0/G1% (DNA content) (A549 cells [3]; untreated control 47.22): 52.37%; Apoptosis % % Late (A549 cells [4]; untreated control 0.11): 21.24%; Apoptosis % % Early (A549 cells [4]; untreated control 0.34): 3.69%; Necrosis% (A549 cells [4]; untreated control 1.26): 17.23%; Apoptosis % %Total (A549 cells [4]; untreated control 1.71): 42.16% |
| Cc1c(C(=O)/C=C/c2ccncc2)c(-c2ccco2)nn1-c1ccc([N+](=O)[O-])cc1 [7c, (E)-1-(3-(Furan-2-yl)-5-methyl-1-(4-nitrophenyl)-1H-pyrazol-4-yl)-3-(pyridin-4-yl)prop-2-en-1-one] |  | 13.9 (≈ 34.6 µM) | 18.2 (≈ 45.5 µM) | 198 to 200 | Gene expression (fold change/ β-actin), BAX (BAX): 4.78 fold change; Gene expression (fold change/ β-actin), Bcl2 (Bcl2): 0.61 fold change; Gene expression (fold change/ β-actin), P53 (P53): 2.32 fold change; Gene expression (fold change/ β-actin), CDK4 (CDK4): 0.54 fold change; Enzyme activity ± SD, Caspase 3 (human caspase-3): 377.2 pg/mL and 377.2 ± 6.04 pg/mL; Enzyme activity ± SD, Caspase 8 (human caspase-8): 1.042 pg/mL and 1.042 ± 0.02 pg/mL; Enzyme activity ± SD, Caspase 9 (human caspase-9): 11.2 pg/mL and 11.2 ± 0.52 pg/mL |
| Cc1c(C(=O)/C=C/c2nn(-c3ccccc3)cc2-c2ccccc2)c(-c2ccco2)nn1-c1ccc([N+](=O)[O-])cc1 [7d, (E)-3-(1,4-Diphenyl-1H-pyrazol-3-yl)-1-(3-(furan-2-yl)-5-methyl-1-(4-nitrophenyl)-1H-pyrazol-4-yl)prop-2-en-1-one] | 76.52 (≈ 141 µM) | 76.5 (≈ 141 µM) | 261 (≈ 483 µM) | 168 to 170 |  |
| Cc1ccc(-c2cn(-c3ccccc3)nc2/C=C/C(=O)c2c(-c3ccco3)nn(-c3ccc([N+](=O)[O-])cc3)c2C)cc1 [7e, (E)-1-(3-(Furan-2-yl)-5-methyl-1-(4-nitrophenyl)-1H-pyrazol-4-yl)-3-(1-phenyl-4-(p-tolyl)-1H-pyrazol-3-yl)prop-2-en-1-one] |  | 217 (≈ 391 µM) | 296 (≈ 532 µM) | 248 to 250 |  |
| COc1ccc(-c2cn(-c3ccccc3)nc2/C=C/C(=O)c2c(-c3ccco3)nn(-c3ccc([N+](=O)[O-])cc3)c2C)cc1 [7f, (E)-1-(3-(Furan-2-yl)-5-methyl-1-(4-nitrophenyl)-1H-pyrazol-4-yl)-3-(4-(4-methoxyphenyl)-1-phenyl-1H-pyrazol-3-yl)prop-2-en-1-one] |  | 238 (≈ 416 µM) | 296 (≈ 518 µM) | 232 to 234 |  |
| Cc1c(C(=O)/C=C/c2nn(-c3ccccc3)cc2-c2ccc(Cl)cc2)c(-c2ccco2)nn1-c1ccc([N+](=O)[O-])cc1 [7g, (E)-3-(4-(4-Chlorophenyl)-1-phenyl-1H-pyrazol-3-yl)-1-(3-(furan-2-yl)-5-methyl-1-(4-nitrophenyl)-1H-pyrazol-4-yl)prop-2-en-1-one] |  | 251 (≈ 437 µM) | 379 (≈ 658 µM) | 242 to 244 |  |
| Cc1c(C(=O)/C=C/c2nn(-c3ccccc3)cc2-c2ccc([N+](=O)[O-])cc2)c(-c2ccco2)nn1-c1ccc([N+](=O)[O-])cc1 [7h, (E)-1-(3-(Furan-2-yl)-5-methyl-1-(4-nitrophenyl)-1H-pyrazol-4-yl)-3-(4-(4-nitrophenyl)-1-phenyl-1H-pyrazol-3-yl)prop-2-en-1-one] |  | 211 (≈ 360 µM) | 224 (≈ 382 µM) | 242 |  |
